From patent US12590062B2, “PD-1/PD-L1 inhibitors” (Gilead Sciences, Inc., priority 2017, dated 2026)

How the values were obtained:
[1] = molecular target: T1, PD-L1 (Homo sapiens, UniProt Q9NZQ7); test: PD-L1/PD-L1 dimerization biochemical protein-protein interaction assay (ALPHA); format: binding; settings: compound-induced PD-L1 dimerization, head prints '1 nM' (0.5 nM His-tagged PD-L1 and 0.5 nM FLAG-tagged PD-L1), read-out: AC50 PDL1 Dimer Alpha 1 nM
T1 construct: determine if they can specifically dimerize the extracellular domains of PD-L1
T1 sequence (Q9NZQ7 19-238 limits assumed): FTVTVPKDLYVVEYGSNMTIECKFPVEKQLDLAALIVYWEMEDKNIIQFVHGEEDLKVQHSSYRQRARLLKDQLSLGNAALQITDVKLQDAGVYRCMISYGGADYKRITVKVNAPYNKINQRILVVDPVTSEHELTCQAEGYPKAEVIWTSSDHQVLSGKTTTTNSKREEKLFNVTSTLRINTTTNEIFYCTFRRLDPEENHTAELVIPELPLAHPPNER
T1 sequence (Q9NZQ7 19-238 limits assumed): as above
Procedure, shortened: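 After 2 h at 25 °C with compound, His- and FLAG-tagged PD-L1 ECDs (each 0.5 nM final; 25 mM Hepes pH 7.4, 150 mM NaCl) were detected by sequential anti-His acceptor and anti-FLAG donor bead incubations. Dose-response curves fitted to four-parameter equation for AC50.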

[2] = molecular target: T2, PD-1/PD-L1 interaction (Homo sapiens, UniProt Q9NZQ7); test: PD-1/PD-L1 NFAT reporter co-culture assay; format: cell-based; settings: Jurkat PD-1 NFAT-luciferase cells co-cultured with aAPC-PD-L1 CHO cells, 6 hrs at 37° C.; read-out: EC50 NFAT Luciferase
T2 construct: expressed in transfected cells; host or cells: CHO cells (aAPC-PD-L1) co-cultured with Jurkat cells overexpressing PD-1 and an NFAT-luciferase reporter
T2 sequence (Q9NZQ7 19-290): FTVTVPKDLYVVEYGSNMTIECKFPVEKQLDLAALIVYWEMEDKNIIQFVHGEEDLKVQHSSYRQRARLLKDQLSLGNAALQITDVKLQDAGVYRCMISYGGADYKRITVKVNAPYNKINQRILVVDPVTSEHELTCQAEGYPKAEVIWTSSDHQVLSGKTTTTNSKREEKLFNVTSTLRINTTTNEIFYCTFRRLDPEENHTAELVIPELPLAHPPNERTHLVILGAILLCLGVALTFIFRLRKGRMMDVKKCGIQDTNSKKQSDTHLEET
Procedure, shortened: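 Jurkat cells overexpressing PD-1 with NFAT-luciferase mixed with compounds and plated onto CHO aAPCs expressing anti-CD3 and PD-L1, RPMI with 2% FBS. Co-culture 6 h at 37 °C; luminescence read with ONE-Glo. EC50 from four-parameter fit.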

[3] = molecular target: PD-1/PD-L1 (Homo sapiens, UniProt Q9NZQ7); test: PD-1/PD-L1 biochemical protein-protein interaction assay (ALPHA); format: binding; settings: 0.3 nM His tagged PD-L1, 2.5 nM biotinylated Fc-PD-1, 60 minutes at 25° C., read-out: IC50 PD-L1-PD-1 Alpha IC50-mono PD-L1-fcP-D1
Sequence of PD-1/PD-L1 (Q9NZQ7 19-238 limits assumed): as the sequence (Q9NZQ7 19-238 limits assumed) above
Procedure, shortened: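 Compound blockade of the PD-1/PD-L1 extracellular-domain interaction measured as reduced ALPHA signal after 60 min at 25 °C, pH 7.4 Hepes buffer with EDTA, Tween 20 and BSA. Final proteins: His-tagged PD-L1 0.3 nM, biotinylated Fc-PD-1 2.5 nM; four-parameter curve fit gives IC50.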

Row | Compound | AC50 [1] [nM] | EC50 [2] [nM] | IC50 [3] [nM]
1 | Cc1c(-c2ccc(CN3CC[C@@H](O)C3)cc2)cccc1-c1cccc(-c2ccc(CNC[C@@H](O)CC(=O)O)c(OCCCC#N)c2)c1C [Example 324, (S)-4-(((3-(3-cyanopropoxy)-4′″-(((R)-3-hydroxypyrrolidin-1-yl)methyl)-2′,2″-dimethyl-[1,1′:3′,1″:3″,1′″-quaterphenyl]-4-yl)methyl)amino)-3-hydroxybutanoic acid] | 1020 | 894 | 0.505
2 | COc1nc(O[C@H]2CCc3c(-c4cccc(-c5cc(C)c(CNC[C@@H]6CCC(=O)N6)c(OC)n5)c4Cl)cccc32)c(Cl)cc1CN1CC[C@](C)(C(=O)O)C1 [Example 489] | 18.3 | 18 | 0.064
3 | COc1nc(-c2cccc(-c3cccc(-c4ccc5c(c4)CCC(N)C5)c3Cl)c2Cl)ccc1CN1CC2(CCC(=O)N2)C1 (stereo not drawn) [Example 612] | 729 | ≥ 50000 | 2.45
4 | Cc1c(COc2cc(OCc3cncc(C#N)c3)c(CNC[C@@H](O)CC(=O)O)cc2Cl)cccc1-c1cccc(-c2ccc(CN[C@H]3CCCNC3=O)cc2)c1C [Example 572] | 453 | 129 | 0.431
5 | Cc1c(COc2cc(OCc3cncc(C#N)c3)c(CN[C@@](C)(CO)C(=O)O)cc2Cl)cccc1-c1cccc(-c2ccc(CNCCc3c[nH]cn3)cc2)c1C [Example 360, (S)-2-((4-((4″-(((2-(1H-imidazol-4-yl)ethyl)amino)methyl)-2,2′-dimethyl-[1,1′:3′,1″-terphenyl]-3-yl)methoxy)-5-chloro-2-((5-cyanopyridin-3-yl)methoxy)benzyl)amino)-3-hydroxy-2-methylpropanoic acid] | 224 | 520 | 1.12
6 | CC(C)(NCc1cc(Cl)c(O[C@H]2CCc3c(-c4cccc(-c5ccc(S(N)(=O)=O)cc5)c4Cl)cccc32)nc1OCc1cncc(C#N)c1)C(=O)O [Example 289, (S)-2-(((5-chloro-6-((4-(2-chloro-4′-sulfamoyl-[1,1′-biphenyl]-3-yl)-2,3-dihydro-1H-inden-1-yl)oxy)-2-((5-cyanopyridin-3-yl)methoxy)pyridin-3-yl)methyl)amino)-2-methylpropanoic acid] | ≥ 10000 | 70 | 0.075
7 | COc1cc(-c2cccc(-c3cccc(-c4ccc(CNC[C@@H]5CCC(=O)N5)c(OC)c4)c3Cl)c2Cl)ccc1CNC[C@@H]1CCC(=O)N1 [Example 513] | 89.3 | 47 | 0.301
8 | CNC(=O)COc1cc(-c2cccc(-c3cccc(COc4cc(OCc5cncc(C#N)c5)c(CNC[C@@H](O)CC(=O)O)cc4Cl)c3C)c2C)ccc1C1=NCCN1 [Example 436] | 77.8 | 544 | 0.064
9 | Cc1c(-c2nc3ccc(CNC[C@@H](O)CC(=O)O)cc3s2)cccc1-c1cccc2c1CC[C@@H]2Oc1nc(OCc2cncc(C#N)c2)c(CNC[C@@H](O)CC(=O)O)cc1Cl [Example 396, (S)-4-(((2-(3-((S)-1-((5-((((S)-3-carboxy-2-hydroxypropyl)amino)methyl)-3-chloro-6-((5-cyanopyridin-3-yl)methoxy)pyridin-2-yl)oxy)-2,3-dihydro-1H-inden-4-yl)-2-methylphenyl)benzo[d]thiazol-6-yl)methyl)amino)-3-hydroxybutanoic acid] | 37.9 | 105 | 0.064
10 | Cc1c(COc2cc(OCc3cncc(C#N)c3)c(CN3CC[C@@H](O)C3)cc2Cl)cccc1-c1cccc(-c2ccc3c(c2)CCC3N2CC[C@@H](C(=O)O)C2)c1C (stereo partly drawn) [Example 370, (3R)-1-(5-(3′-((2-chloro-5-((5-cyanopyridin-3-yl)methoxy)-4-(((R)-3-hydroxypyrrolidin-1-yl)methyl)phenoxy)methyl)-2,2′-dimethyl-[1,1′-biphenyl]-3-yl)-2,3-dihydro-1H-inden-1-yl)pyrrolidine-3-carboxylic acid] | 81.4 | 577 | 0.139
11 | Cc1c(COc2cc(OCc3cncc(C#N)c3)c(CN[C@@](C)(CO)C(=O)O)cc2Cl)cccc1-c1cccc(-c2ccc(CN[C@H]3CCCNC3=O)cc2)c1C [Example 573] | 215 | 120 | 0.154
12 | COc1nc(-c2cccc(-c3cccc4c3CC[C@@H]4Oc3nc(OC)c(CN4CC(C(=O)O)C4)cc3Cl)c2Cl)ccc1CNC[C@@H]1CCC(=O)N1 [Example 757] | 17.6 | 15 | 0.064
13 | COc1nc(-c2cccc(-c3cccc(-c4ccc5c(C[N+](C)(C)C)c[nH]c5c4)c3Cl)c2Cl)ccc1CNC[C@@H]1CCC(=O)N1 [Example 609] | 143 | 541 | 0.387
14 | COc1nc(-c2cccc(-c3cccc(COc4nc(OCc5cncc(C#N)c5)c(CNC[C@@H](O)CC(=O)O)cc4Br)c3Cl)c2Cl)ccc1C1=NCCN1 [Example 558] | 33.6 | 51 | 0.065
15 | CCOC(=O)[C@@H]1CCN(Cc2cc(Cl)c(O[C@H]3CCc4c(-c5cccc(-c6ccc(CN7CC8(C7)CN(C(C)=O)C8)cc6)c5Cl)cccc43)nc2OC)C1 [Example 770] | 700 | 856 | 0.418
16 | N#Cc1cncc(COc2nc(O[C@H]3CCc4c(-c5cccc6c5CC[C@@H]6Oc5nc(OCc6cncc(C#N)c6)c(C6=NCCN6)cc5Br)cccc43)c(Br)cc2C2=NCCN2)c1 [Example 752] | 82.5 | 471 | 0.779
17 | COc1cc(-c2cccc(-c3cccc(COc4cc(OCc5cncc(C#N)c5)c(CN[C@@](C)(CO)C(=O)O)cc4Cl)c3C)c2C)ccc1CNCC1CCC(=O)N1 (stereo partly drawn) [Example 508] | 78 | 156 | 0.084
18 | COc1nc(O[C@H]2CCc3c(-c4cccc(-c5ccc(CNC[C@@H]6CCC(=O)N6)cc5)c4Cl)cccc32)c(Cl)cc1CN1CCC[C@H]1C(=O)O [Example 725] | 14.3 | 88 | 0.064
19 | COc1cc(-c2cccc(-c3cccc(-c4cnc(C5=NCCN5)c(OC)c4)c3Cl)c2Cl)cnc1CNC[C@@H](O)CC(=O)O [Example 629] | ≥ 10000 | 251 | 0.064
20 | COc1nc(O[C@H]2CCc3c(-c4cccc(-c5ccc(CNC[C@@H]6CCC(=O)N6)c(OCC#N)n5)c4Cl)cccc32)c(Cl)cc1CN[C@@H]1CCC[C@@H]1O [Example 651] | 29.5 | 41 | 0.297
21 | Cc1c(COc2cc(OCc3cncc(C#N)c3)c(CNC[C@@H](O)CC(=O)O)cc2Cl)cccc1-c1cccc(-c2ccc(CNC[C@@H](O)CC(=O)O)c(SC(F)F)c2)c1C [Example 460] | 302 | 112 | 0.147
22 | COc1nc(-c2cccc(-c3cccc(-c4ccc5cc(CN(C)C)[nH]c5c4)c3Cl)c2Cl)ccc1CNC[C@@H]1CCC(=O)N1 [Example 607] | 296 | 1730 | 1.19
23 | Cc1c(COc2cc(OCc3cncc(C#N)c3)c(CNC[C@@H](O)CC(=O)O)cc2Cl)cccc1-c1cccc(-c2ccc(C3=NCCN3)c(OC(F)F)c2)c1C [Example 464] | 87.6 | 152 | 0.099
24 | COc1nc(O[C@H]2CCc3c(-c4cccc(-c5nc6cc(CNCCO)ccn6n5)c4Cl)cccc32)c(Cl)cc1CNCCO [Example 638, (S)-2-(((2-(2-chloro-3-(1-((3-chloro-5-(((2-hydroxyethyl)amino)methyl)-6-methoxypyridin-2-yl)oxy)-2,3-dihydro-1H-inden-4-yl)phenyl)-[1,2,4]triazolo[1,5-a]pyridin-7-yl)methyl)amino)ethan-1-ol] | 23.8 | 429 | 0.064
25 | Cc1c(COc2cc(OCc3cncc(C#N)c3)c(CN[C@@](C)(CO)C(=O)O)cc2Cl)cccc1-c1cccc(-c2ccc(CNCCS(C)(=O)=O)cc2)c1C [Example 571] | 156 | 126 | 0.091
26 | Cc1c(COc2cc(OCc3cncc(C#N)c3)c(CN[C@](C)(CO)C(=O)O)cc2Cl)cccc1-c1cccc(-c2ccc(OCCNCCO)c(S(C)(=O)=O)c2)c1C [Example 310, (R)-2-((5-chloro-2-((5-cyanopyridin-3-yl)methoxy)-4-((4″-(2-((2-hydroxyethyl)amino)ethoxy)-2,2′-dimethyl-3″-(methylsulfonyl)-[1,1′:3′,1″-terphenyl]-3-yl)methoxy)benzyl)amino)-3-hydroxy-2-methylpropanoic acid] | 121 | 215 | 0.069
27 | COc1nc(O[C@H]2CCc3c(-c4cccc(-c5cnc(CN6CC(CO)C6)c(OC)n5)c4Cl)cccc32)c(Cl)cc1CN1CC[C@H](C(=O)O)C1 [Example 703] | 24.2 | 11 | 0.064
28 | COc1nc(-c2cccc(-c3cccc4c3CC[C@@H]4Oc3nc(OC)c(CN4CCC[C@H](C(=O)O)C4)cc3Cl)c2Cl)ccc1CNC[C@@H]1CCC(=O)N1 [Example 759] | 18.9 | 16 | 0.064
